Assay results published in the supplement of paper PMC11061612.

Legend:
[1] = tested on: SNU-16 (Gastric Carcinoma); test: Bliss excess, mean over the matrix (fraction); higher = more synergy
Summary of the method: (§1)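 Cell lines in DMEM/F12 or RPMI with 10% FBS were plated in 1536-well plates, held 24 hours at 37°C, 5% CO2, then given two-drug dose matrices for 72 hours (DMSO typically 0.2%). Viability was read by CellTiter-Glo 2.0 luminescence and scaled as inhibition from 0 (vehicle wells) to 1 (blank wells). Combination Emax is the second-highest inhibition in the matrix; Bliss excess is observed combination effect minus expected EA + EB − EA·EB, EA and EB being single-agent effects.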

BPH-1 (Non-Cancerous) = test: as above
Summary of the method: as §1

BE2-M17 (Neuroblastoma) = test: as above
Summary of the method: as §1

[2] = tested on: SAS (Oral Cavity Carcinoma); test: as above
Summary of the method: as §1

[3] = tested on: L-428 (Hodgkin's Lymphoma); test: as above
Summary of the method: as §1

[4] = tested on: TGBC1TKB (Biliary Tract Carcinoma); test: as above
Summary of the method: as §1

[5] = tested on: KMRC-20 (Kidney Carcinoma); test: as above
Summary of the method: as §1

[6] = tested on: BFTC-909 (Kidney Carcinoma); test: as above
Summary of the method: as §1

[7] = tested on: HuH-7 (Hepatocellular Carcinoma); test: as above
Summary of the method: as §1

[8] = tested on: HeLa (Cervical Carcinoma); test: as above
Summary of the method: as §1

[9] = tested on: HuCCT1 (Biliary Tract Carcinoma); test: as above
Summary of the method: as §1

[10] = tested on: Detroit562 (Head and Neck Carcinoma); test: as above
Summary of the method: as §1

MPP-89 (Mesothelioma) = test: as above
Summary of the method: as §1

[11] = tested on: ESS-1 (Other Solid Carcinomas); test: as above
Summary of the method: as §1

[12] = tested on: NCI-H524 (Small Cell Lung Carcinoma); test: as above
Summary of the method: as §1

KS-1 (Glioblastoma) = test: combination Emax (second highest fraction inhibited in the dose matrix, 72 h); higher = more inhibition; extreme values may be limits of the assay
Summary of the method: as §1

[13] = tested on: BE-13 (T-Lymphoblastic Leukemia); test: as above
Summary of the method: as §1

[14] = tested on: OE21 (Esophageal Squamous Cell Carcinoma); test: as above
Summary of the method: as §1

[15] = tested on: TGBC1TKB (Biliary Tract Carcinoma); test: as above
Summary of the method: as §1

[16] = tested on: CAL-33 (Oral Cavity Carcinoma); test: as above
Summary of the method: as §1
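Throughout, for Bliss excess, mean over the matrix: after 72 h of two-drug dosing.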

| Structure (SMILES) | Bliss excess [1] | Bliss excess (BPH-1 (Non-Cancerous)) | Bliss excess (BE2-M17 (Neuroblastoma)) | Bliss excess [2] | Bliss excess [3] | Bliss excess [4] | Bliss excess [5] | Bliss excess [6] | Bliss excess [7] | Bliss excess [8] | Bliss excess [9] | Bliss excess [10] | Bliss excess (MPP-89 (Mesothelioma)) | Bliss excess [11] | Bliss excess [12] | combination Emax (KS-1 (Glioblastoma)) | combination Emax [13] | combination Emax [14] | combination Emax [15] | combination Emax [16] |
| --- | --- | --- | --- | --- | --- | --- | --- | --- | --- | --- | --- | --- | --- | --- | --- | --- | --- | --- | --- | --- |
| CCc1c2c(nc3ccc(O)cc13)-c1cc3c(c(=O)n1C2)COC(=O)[C@]3(O)CC [SN-38] + CN(C)CCCOc1ccc(-c2ccc3ncc4c(c3c2)n(C2CCOCC2)c(=O)n4C)cn1 [AZD0156] (first compound max 0.3 µM, 7x7, partner max 1 µM) | 0.107 | 0.0463 | -0.0073 | 0.0781 | -0.0558 | -0.006 | -0.0156 | 0.0225 | 0 | 0.0255 | -0.0337 | 0.118 | 0.0342 | 0.0109 | 0.0993 | 0.464 | 0.748 | 0.678 | 0.366 | 0.936 |
| Cn1cnc2c(F)c(Nc3ccc(Br)cc3Cl)c(C(=O)NOCCO)cc21 [Selumetinib] + C=CCn1c(=O)c2cnc(Nc3ccc(N4CCN(C)CC4)cc3)nc2n1-c1cccc(C(C)(C)O)n1 [AZD1775] (first compound max 10 µM, partner max 1 µM) | 0.0433 | 0.0209 | -0.11 | 0.0324 | -0.0744 | 0.0366 | -0.0682 | -0.0047 | -0.0509 | -0.0826 | -0.0385 | 0.0123 | -0.0131 | -0.052 | -0.0452 | 0.277 | 1 | 0.683 | 0.233 | 0.836 |
| Cn1cnc2c(F)c(Nc3ccc(Br)cc3Cl)c(C(=O)NOCCO)cc21 [Selumetinib] + CC(C)n1c(=O)n(C)c2cnc3cc(F)c(-c4ccc(OCCCN5CCCCC5)nc4)cc3c21 [AZD1390] (first compound max 10 µM, 7x7, partner max 0.3 µM) | -0.0185 | 0.026 | -0.0293 | -0.0146 | -0.0231 | -0.0157 | -0.0458 | -0.024 | -0.0205 | -0.0437 | 0.0231 | 0.003 | -0.069 | -0.0044 | -0.0286 | 0.197 | 0.179 | 0.386 | 0.152 | 0.755 |
| Cn1cnc2c(F)c(Nc3ccc(Br)cc3Cl)c(C(=O)NOCCO)cc21 [Selumetinib] + CCN(CCO)CCCOc1ccc2c(Nc3cc(CC(=O)Nc4cccc(F)c4)[nH]n3)ncnc2c1 [AZD2811] (first compound max 10 µM, 7x7, partner max 1 µM) | -0.0501 | 0.0204 | -0.0073 | -0.0274 | 0.0174 | 0 | -0.059 | -0.0093 | -0.0164 | -0.0561 | 0.0066 | 0.0685 | -0.0325 | -0.0617 | -0.0101 | 0.298 | 0.735 | 0.441 | 0.211 | 0.653 |
| Cn1cnc2c(F)c(Nc3ccc(Br)cc3Cl)c(C(=O)NOCCO)cc21 [Selumetinib] + C[C@@H]1COCCN1C2=NC(=NC(=C2)C3(CC3)[S@](=N)(=O)C)C4=C5C=CNC5=NC=C4 [AZD6738] (first compound max 10 µM, 7x7, partner max 10 µM) | 0.0038 | 0.108 | 0.0348 | -0.012 | -0.0311 | -0.0031 | -0.0496 | -0.025 | -0.0221 | 0.0113 | -0.0164 | -0.0438 | -0.0424 | 0.024 | -0.0293 | 0.334 | 0.784 | 0.837 | 0.347 | 0.826 |
| CC(=O)Nc1cccc(-n2c(=O)n(C3CC3)c(=O)c3c(Nc4ccc(I)cc4F)n(C)c(=O)c(C)c32)c1 [Trametinib] + Cc1nc(-c2cn3c(n2)-c2ccc(-c4cnn(C(C)(C)C(N)=O)c4)cc2OCC3)n(C(C)C)n1 [Taselisib] (first compound max 1 µM, 7x7, partner max 10 µM) | 0.257 | 0.0283 | 0.107 | 0.145 | -0.0045 | 0.0385 | 0.0506 | 0.182 | 0.0875 | 0.0483 | 0.182 | 0.108 | 0.103 | 0.114 | -0.112 | 0.832 | 0.168 | 0.952 | 0.933 | 0.989 |
| CC1(C)CCC(CN2CCN(c3ccc(C(=O)NS(=O)(=O)c4ccc(NCC5CCOCC5)c([N+](=O)[O-])c4)c(Oc4cnc5[nH]ccc5c4)c3)CC2)=C(c2ccc(Cl)cc2)C1 [Venetoclax] + C1CN(CCC1(C(=O)N[C@@H](CCO)C2=CC=C(C=C2)Cl)N)C3=NC=NC4=C3C=CN4 [Capivasertib] (first compound max 1 µM, 7x7, partner max 3 µM) | -0.0496 | -0.033 | -0.0682 | 0.0016 | -0.0577 | -0.0535 | -0.0172 | -0.0292 | -0.0537 | -0.0669 | -0.0734 | -0.0191 | -0.0361 | -0.0498 | -0.0624 | 0.303 | 0.379 | 0.48 | 0.309 | 0.276 |
